Assay results published in patent publication US7329651B2 (priority 2001, dated 2008).
Read-outs that look alike come from different tables or passages of the source.

What was measured:
CB1 cannabinoid receptor = target: T1, CB1 cannabinoid receptor (Rattus norvegicus, UniProt P20272); test: CB1 receptor binding, [3H] CP-55,940 displacement, rat forebrain membranes
T1 construct: membranes were prepared from rat forebrain membranes; from tissue; host or cells: rat forebrain
Protocol: (§1) The prepared cannabinoid compounds were tested for CB2 receptor binding affinity and for CB1 receptor affinity (to determine selectivity for the CB2 receptor). As used herein, “binding affinity” is represented by the IC50 value which is the concentration of an analog required to occupy the 50% of the total number (Bmax) of the receptors. The lower the IC50 value, the higher the binding affinity. […] The binding affinities (Ki) are expressed in nanomoles (nM).
For the CB1 receptor binding studies, membranes were prepared from rat forebrain membranes according to the procedure of P. R. Dodd et al; A Rapid Method for Preparing Synaptosomes: Comparison with Alternative Procedures, Brain Res., 107-118 (1981). The binding of the novel analogues to the CB1 cannabinoid receptor was assessed as described in W. A. Devane et al; Determination and Characterization of a Cannabinoid Receptor in a Rat Brain, Mol. Pharmacol., 34, 605-613 (1988) and A. Charalambous et al; “5′-azido ^8−THC: A Novel Photoaffinity Label for the Cannabinoid Receptor”, J. Med. Chem., 35, 3076-3079 (1992) with the following changes. The above articles are incorporated by reference herein.
Membranes, previously frozen at −80° C., were thawed on ice. To the stirred suspension was added three volumes of TME (25 mM Tris-HCl buffer, 5 mM MgCl2 and 1 mM EDTA) at a pH 7.4. The suspension was incubated at 40° C. for 30 min. At the end of the incubation, the membranes were pelleted and washed three times with TME.
(§2) The treated membranes were subsequently used in the binding assay described below. Approximately 30 μg of membranes were incubated in silanized 96-well microtiter plate with TME containing 0.1% essentially fatty acid-free bovine serum albumin (BSA), 0.8 nM [^3H] CP-55,940, and various concentrations of test materials at 30° C. for 1 hour. The samples were immediately filtered using a Packard Filtermate 196 and Whatman GF/C filterplates and washed with wash buffer (TME) containing 0.5% BSA. Radioactivity was detected using MicroScint 20 scintillation cocktail added directly to the dried filterplates, and the filterplates were counted using a Packard Instruments Top-Count. Nonspecific binding was assessed using 100 nM CP-55,940. Data collected from three independent experiments performed with duplicate determinations was normalized between 100% and 0% specific binding for [^3H] CP-55,940, determined using buffer and 100 nM CP-55,940. The normalized data was analyzed using a 4-parameter nonlinear logistic equation to yield IC50 values. Data from at least two independent experiments performed in duplicate was used to calculate IC50 values which were converted to Ki values using the using the assumptions of Cheng et al; “Relationship Between the Inhibition Constant (Ki) and the concentration of Inhibitor which causes 50% Inhibition (IC50) of an Enzymatic Reaction”, Biochem. Pharmacol., 22, 3099-3102, (1973), which is incorporated by reference herein.

CB2 receptor = target: T2, CB2 receptor (Mus musculus, UniProt P47936); test: biochemical; type: binding; settings: for Selectivity for CB2: ratio of CB1 Ki to CB2 Ki
T2 construct: membranes were prepared from frozen mouse spleen; from tissue; host or cells: mouse spleen
Protocol: as §1, §2
For the CB2 receptor binding studies, membranes were prepared from frozen mouse spleen essentially according to the procedure of P. R. Dodd et al; “A Rapid Method for Preparing Synaptosomes: Comparison with Alternative Procedures”, Brain Res., 226, 107-118 (1981) which is incorporated by reference herein. Silanized centrifuge tubes were used throughout to minimize receptor loss due to adsorption. The CB2 binding assay was conducted in the same manner as the CB1 binding assay. The binding affinities (Ki) were also expressed in nanomoles (nM).

CB2 = CB2 (Homo sapiens, UniProt P34972); test: Intracellular cyclic AMP levels, comparative protein binding assay (adenylate cyclase inhibition); type: cell-based; settings: intracellular cAMP
Protocol: Intracellular cyclic AMP (cAMP) levels are measured with a comparative protein binding assay (materials available from Diagnostic Products, Inc. of Carlsbad, Calif.) generally according to the method described in Tao, Q. and M. E. Abood; “Mutation of a highly conserved aspartate residue in the second transmembrane domain of the cannabinoid receptors, CB1 and CB2, disrupts G-protein coupling”, J Pharmacol Exp Ther, 1998, 285(2): pp. 651-658, which is incorporated by reference herein. […] The IC50 value for Compound 2 was 8 nM.

[1] = rat forebrain membranes, 0.8 nM [3H] CP-55,940, read-out: Ki(nM) CB1
[2] = mouse spleen membranes, [3H] CP-55,940, read-out: Ki(nM) CB2

T1 sequence (P20272 whole entry): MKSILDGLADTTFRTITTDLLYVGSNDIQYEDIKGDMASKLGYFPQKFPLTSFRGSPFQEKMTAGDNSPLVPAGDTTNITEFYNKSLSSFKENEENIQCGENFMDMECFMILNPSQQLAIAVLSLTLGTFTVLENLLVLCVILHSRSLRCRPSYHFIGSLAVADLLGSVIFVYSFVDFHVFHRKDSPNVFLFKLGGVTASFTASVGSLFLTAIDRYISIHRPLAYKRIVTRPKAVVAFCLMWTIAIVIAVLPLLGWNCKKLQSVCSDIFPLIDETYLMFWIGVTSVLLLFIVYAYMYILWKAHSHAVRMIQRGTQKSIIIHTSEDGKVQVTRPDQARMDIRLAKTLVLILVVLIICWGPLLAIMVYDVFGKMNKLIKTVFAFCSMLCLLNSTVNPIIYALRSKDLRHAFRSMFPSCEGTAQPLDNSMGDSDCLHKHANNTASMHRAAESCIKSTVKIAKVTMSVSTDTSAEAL
T2 sequence (P47936 whole entry): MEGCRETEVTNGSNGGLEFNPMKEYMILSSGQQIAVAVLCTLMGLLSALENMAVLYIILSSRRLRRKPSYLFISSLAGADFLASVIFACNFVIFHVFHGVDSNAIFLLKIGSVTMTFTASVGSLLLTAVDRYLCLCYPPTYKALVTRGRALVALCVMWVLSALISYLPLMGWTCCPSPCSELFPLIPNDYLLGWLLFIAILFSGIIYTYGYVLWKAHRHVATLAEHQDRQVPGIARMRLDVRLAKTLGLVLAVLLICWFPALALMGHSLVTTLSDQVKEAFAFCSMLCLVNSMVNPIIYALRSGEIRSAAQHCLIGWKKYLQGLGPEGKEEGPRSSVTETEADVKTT
Chain of CB2 (P34972 whole entry, species assumed, the tested form may be a part): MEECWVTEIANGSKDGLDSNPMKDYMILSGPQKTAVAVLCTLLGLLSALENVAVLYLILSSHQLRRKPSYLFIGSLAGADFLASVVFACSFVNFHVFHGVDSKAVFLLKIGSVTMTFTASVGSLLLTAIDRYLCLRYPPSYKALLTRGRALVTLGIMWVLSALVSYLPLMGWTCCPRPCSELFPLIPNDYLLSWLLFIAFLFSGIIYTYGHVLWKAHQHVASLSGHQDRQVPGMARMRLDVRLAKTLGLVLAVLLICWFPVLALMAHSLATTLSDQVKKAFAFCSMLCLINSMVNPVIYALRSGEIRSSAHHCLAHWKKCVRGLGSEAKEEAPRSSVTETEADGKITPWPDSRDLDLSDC

Compound	melting point	Ki (CB1 cannabinoid receptor; [1])	Selectivity for CB2 (CB2 receptor)	Ki (CB2 receptor; [2])	also measured
CN(C)C(=O)C1=NN(c2ccccc2)C(C(N)=O)=NN1c1ccccc1 [compound 6, N,N-Dimethyl-1,4-diphenyl-1,4-dihydro-1,2,4,5-tetrazine-3,6-dicarboxylic di-amide]	243 to 243.5 °C	–	–	–	–
CC(=O)C1=NN(c2ccccc2)C(C(C)=O)=NN1c1ccccc1 [compound 4, 1,4-Diphenyl-1,4-dihydro-3,6-diacetyl-1,2,4,5-tetrazine]	–	10000 nM	1	–	Ki (CB2 receptor): 10000 nM
CCOC(=O)C1=NN(c2ccc(Br)cc2)C(C(=O)OCC)=NN1c1ccc(Cl)cc1 [compound 23]	130 to 131 °C	542 nM	18	30 nM	–
CCOC(=O)C1=NN(c2ccccc2)C(C(=O)OCC)=NN1c1ccccc1 [compound 2]	–	1670 nM	88	19 nM	effect on formation of cyclic AMP (CB2; adenylate cyclase): reduce formation of cyclic AMP by inhibiting adenylate cyclase; IC50 (CB2; read-out: IC50 value, reduction of cyclic AMP formation): 0.008 µM
CCOC(=O)C1=NN(c2ccccc2)C(C(C)=O)=NN1c1ccccc1 [compound 12, 1,4-Diphenyl-1,4-dihydro-1,2,4,5-tetrazine-3-aceto-6-carboxylic acid ethyl ester]	–	7700 nM	24	327 nM	–
CCOC(=O)C1=NN(c2ccccc2)C(C(=O)N2CCCCC2)=NN1c1ccccc1 [compound 13, 1,4-Diphenyl-1,4-dihydro-1,2,4,5-tetrazine-3-carboxylic N-isopinocampheyl amide-6-carboxylic ethyl ester]	–	5040 nM	20	255 nM	–
NC(=O)C1=NN(c2ccccc2)C(C(N)=O)=NN1c1ccccc1 [compound 5]	–	10000 nM	1	10000 nM	–
CNC(=O)C1=NN(c2ccccc2)C(C(=O)NC)=NN1c1ccccc1 [compound 6]	–	66000 nM	1	–	–
CCOC(=O)C1=NN(c2ccc(Br)cc2)C(C(=O)OCC)=NN1c1ccc(Br)cc1 [compound 17]	–	350 nM	–	200 nM	–
CCOC(=O)c1nnc(C(=O)OCC)c2c1[nH]c1ccccc12	151 to 152 °C	–	–	–	–
CC1C(NC(=O)C2=NN(c3ccccc3)C(C(=O)NC3CC4CC(C3C)C4(C)C)=NN2c2ccccc2)CC2CC1C2(C)C (stereo not shown) [compound 11]	–	–	1	–	Ki (CB1 cannabinoid receptor): 100000 nM
COC(=O)C1=NN(c2ccccc2)C(C(=O)OC)=NN1c1ccccc1 [compound 1, Dimethyl 1,4-diphenyl-1,4-dihydro-1,2,4,5-tetrazine-3,6-dicarboxylate]	171 to 172 °C	31000 nM	81	381 nM	–
CCOC(=O)C1=NN(c2ccc(Cl)cc2)C(C(=O)OCC)=NN1c1ccc(Cl)cc1 [compound 16, 1,4-Di-(4-chlorophenyl)-1,4-dihydro-1,2,4,5-tetrazine-3,6-dicarboxylic acid diethyl ester]	–	208 nM	4.3	48 nM	–
CCOC(=O)C1=NN(c2cccc3ccccc23)C(C(=O)OCC)=NN1c1ccccc1 [compound 24, 1-Phenyl-4-α-naphthalenyl-1,4-dihydro-1,2,4,5-tetrazine-3,6-dicarboxylic acid diethyl ester]	–	7360 nM	40	182 nM	–
CCOC(=O)C1=NN(C(=O)c2ccccc2I)C(C(=O)OCC)=NN1C(=O)c1ccccc1I	186 to 187 °C	–	–	–	–
CCOC(=O)C1=NN(c2ccccc2)C(C(=O)NC2CC3CC(C2C)C3(C)C)=NN1c1ccccc1 (stereo not shown) [compound 14, 1,4-Diphenyl-1,4-dihydro-1,2,4,5-tetrazine-3-carboxylic N-piperidinyl amide-6-carboxylic acid ethyl ester]	–	–	2.6	805 nM	Ki (CB1 cannabinoid receptor): 2050 nM
CCN(CC)C(=O)C1=NN(c2ccccc2)C(C(N)=O)=NN1c1ccccc1 [compound 7, N,N-Diethyl-1,4-diphenyl-1,4-dihydro-1,2,4,5-tetrazine-3,6-dicarboxylic di-amide]	239 to 240 °C	–	–	–	–
O=C(C1=NN(c2ccccc2)C(C(=O)N2CCCCC2)=NN1c1ccccc1)N1CCCCC1 [compound 9]	–	9990 nM	42	221 nM	–
CCOC(=O)C1=NN(c2ccc(Cl)cc2Cl)C(C(=O)OCC)=NN1c1ccc(Cl)cc1Cl [compound 19]	–	10000 nM	1	10000 nM	–
CC(CO)NC(=O)C1=NN(c2ccccc2)C(C(=O)NC(C)CO)=NN1c1ccccc1 (stereo not shown) [compound 10]	262 to 263 °C	100000 nM	1	–	–
CCOC(=O)C1=NN(c2ccc([N+](=O)[O-])cc2)C(C(=O)OCC)=NN1c1ccc([N+](=O)[O-])cc1 [compound 15]	–	–	–	–	Ki (CB1 cannabinoid receptor): 100000 nM
CCOC(=O)C1=NN(c2ccc(Cl)cc2)C(C(=O)OCC)=NN1c1ccccc1 [compound 22, 1-(4-chlorophenyl)-4-phenyl-1,4-dihydro-1,2,4,5-tetrazine-3,6-dicarboxylic acid diethyl ester]	–	1500 nM	34	43 nM	–
CCOC(=O)C1=NN(c2ccc(OC)cc2)C(C(=O)OCC)=NN1c1ccc(OC)cc1 [compound 18]	–	4590 nM	64	72 nM	–
CCOC(=O)C1=NN(C(=O)c2ccccc2)C(C(=O)OCC)=NN1C(=O)c1ccccc1 [compound 21, 1,4-Dibenzoyl-1,4-dihydro-1,2,4,5-tetrazine-3,6-dicarboxylic acid diethyl ester]	133.5 to 134 °C	100000 nM	1	–	–
CCOC(=O)C1=NN(c2cccc3ccccc23)C(C(=O)OCC)=NN1c1cccc2ccccc12 [compound 20, 1,4-Di-(α-naphthalene)-1,4-dihydro-1,2,4,5-tetrazine-3,6-dicarboxylic acid diethyl ester]	129 to 130 °C	1e+06 nM	524	1910 nM	–
CCNC(=O)C1=NN(c2ccccc2)C(C(=O)NCC)=NN1c1ccccc1 [compound 7]	–	100000 nM	1	–	–
N,N-Dibutyl-1,4-diphenyl-1,4-dihydro-1,2,4,5-tetrazine-3,6-dicarboxylic di-amide [compound 8]	–	16000 nM	23	692 nM	–
CCCOC(=O)C1=NN(c2ccccc2)C(C(=O)OCCC)=NN1c1ccccc1 [compound 3, Dipropyl-1,4-diphenyl-1,4-dihydro-1,2,4,5-tetrazine-3,6-dicarboxylate]	82.5 to 83 °C	618 nM	27	23.3 nM	–
